The subject of data set [1] is A549. Description: In vitro toxicity (MTT), A549. The format is cell-based. The settings on record: Homo sapiens, cytotoxicity. How it is done:
The murine macrophage cell line J774 and human cancer cell lines A549 and HepG2 were maintained in DMEM containing 10% fetal bovine serum (FBS) and 1% penicillin-streptomycin. At passage 7, 10^5 cells/well in DMEM containing 10% FBS were transferred into 96-well plates and cultured for 14 h for the cells to adhere to the wells. The compounds were added to the cells at concentrations ranging from 0.03 to 128 μg/ml. The wells without the compound served as controls. […] After 24 or 48 h, the supernatant was removed and 50 μl of 5-mg/ml 3-(4,5-dimethylthiazol-2-yl)-2,5-diphenyltetrazoliumbromide (MTT) solution in phosphate-buffered saline (PBS) was added to each well. The plates were incubated for an additional 4 h. The formazan crystal formed inside the cell was dissolved by adding 50 μl of dimethyl sulfoxide (DMSO). The optical density was measured at 570 nm.

Data set [2] relates to Aspergillus fumigatus 293. Description: Synergistic assay (FIC), AF. The format is cell-based. Here is the method:
(§1) Synergistic activity was assayed by calculating the fractional inhibitory index (FIC). Briefly, in a 96-well plate, drug A (D13) was serially diluted from 16 to 0.015 μg/ml (11 dilutions), whereas drug B (either fluconazole, amphotericin B, caspofungin, itraconazole, or voriconazole) was serially diluted from 12 to 0.19 μg/ml for fluconazole, 5 to 0.078 μg/ml for amphotericin B, or 8 to 0.007 μg/ml for caspofungin, itraconazole, or voriconazole (seven dilutions). The FIC was defined as (MIC combined/MIC drug A alone) + (MIC combined/MIC drug B alone). Synergism was categorized with the following scale: strongly synergistic effect, FIC of <0.5; synergistic effect, FIC of <1; additive effect, FIC of 1; no effect, FIC between 1 and 2; antagonistic effect, FIC of >2.

Data set [3] has as its system Candida albicans 3022. As to the kind of experiment: Synergistic assay (FIC), CA Flu-R. It is filed as cell-based. Here is the method:
as §1

For data set [4] the following is noted: human, with NADPH.
Protocol: (§2) To test for metabolic stability, 40 μl of 10 mM NADPH solution was added to each well of a 96-well plate. The final concentration of NADPH was 1 mM. The mixture was prewarmed at 37°C for 5 min. The negative-control samples were prepared by replacing NADPH solutions with 40 μl of ultrapure H2O. The negative control was used to exclude the misleading factor that resulted from the instability of the chemical itself. Samples with NADPH were prepared in duplicate. Negative controls were prepared in singlet. The reaction was started with the addition of 4 μl of 200 μM control compound or test compound solutions. […] An aliquot of 90 μl of the supernatant was mixed with 90 μl of ultrapure H2O and then used for LC-MS/MS analysis.
In data set [5] the test system is Cryptococcus neoformans H99. As to the kind of experiment: Synergistic assay (FIC), CN. The format is cell-based. Here is the method: as §1
Data set [6] has as its system Candida albicans A39. As to the kind of experiment: Synergistic assay (FIC), CA. The format is cell-based. Here is the method:
as §1

For data set [7], the target named is human ether-a-go-go-related gene (hERG) potassium channel (Homo sapiens, UniProt Q12809). Description: hERG patch clamp assay. It is filed as cell-based.
Sequence of human ether-a-go-go-related gene (hERG) potassium channel (Q12809 whole entry): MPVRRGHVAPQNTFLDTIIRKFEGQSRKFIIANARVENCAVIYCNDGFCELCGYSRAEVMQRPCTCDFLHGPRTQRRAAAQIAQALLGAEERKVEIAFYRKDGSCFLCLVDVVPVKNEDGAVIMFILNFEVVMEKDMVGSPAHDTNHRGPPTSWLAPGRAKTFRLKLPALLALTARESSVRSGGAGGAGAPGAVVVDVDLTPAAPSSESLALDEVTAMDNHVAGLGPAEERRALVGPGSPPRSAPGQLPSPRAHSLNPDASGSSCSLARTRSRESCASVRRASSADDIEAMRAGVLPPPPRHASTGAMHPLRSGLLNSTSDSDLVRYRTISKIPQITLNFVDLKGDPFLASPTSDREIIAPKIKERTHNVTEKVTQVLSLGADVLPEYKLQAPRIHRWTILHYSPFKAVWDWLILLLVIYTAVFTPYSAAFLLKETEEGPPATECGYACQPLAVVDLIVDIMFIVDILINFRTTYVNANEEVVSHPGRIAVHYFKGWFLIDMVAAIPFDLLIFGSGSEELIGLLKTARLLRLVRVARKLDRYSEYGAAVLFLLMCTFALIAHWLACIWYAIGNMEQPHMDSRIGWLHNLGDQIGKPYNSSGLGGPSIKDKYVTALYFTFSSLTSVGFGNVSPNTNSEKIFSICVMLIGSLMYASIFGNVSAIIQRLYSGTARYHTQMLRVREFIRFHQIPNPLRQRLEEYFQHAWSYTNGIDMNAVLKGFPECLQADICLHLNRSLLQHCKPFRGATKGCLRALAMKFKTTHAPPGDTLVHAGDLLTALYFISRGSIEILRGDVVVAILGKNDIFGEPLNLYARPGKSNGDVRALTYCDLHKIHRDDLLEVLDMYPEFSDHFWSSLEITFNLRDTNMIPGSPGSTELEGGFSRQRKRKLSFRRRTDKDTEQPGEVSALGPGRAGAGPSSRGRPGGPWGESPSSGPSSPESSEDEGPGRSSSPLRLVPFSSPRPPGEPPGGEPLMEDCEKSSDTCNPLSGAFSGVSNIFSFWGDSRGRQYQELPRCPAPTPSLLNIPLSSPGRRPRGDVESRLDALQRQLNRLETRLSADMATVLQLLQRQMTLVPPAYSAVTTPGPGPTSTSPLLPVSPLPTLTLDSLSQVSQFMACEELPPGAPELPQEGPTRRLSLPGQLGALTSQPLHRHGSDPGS
Data set [8] concerns Candida krusei. Description: Synergistic assay (FIC), CK Flu R1. The format is cell-based. The settings on record: Pichia kudriavzevii. How it is done:
as §1

For data set [9] the following is noted: mouse, with NADPH.
Protocol: as §2
In data set [10] the test system is Aspergillus fumigatus. Description: Mouse model of invasive pulmonary aspergillosis. It is filed as in vivo, mice. The following applies: oral 20 mg/kg/day; for lung fungal burden (CFU) of surviving mice: at the endpoint, data not shown; for mice that survived: immunosuppressed mice, after 15 days. Here is the method:
For survival study, 8-week-old CBA/J (Envigo) male mice were used. They were divided into sets of 10 mice for each treatment or control group. The day prior to infection, the mice were immunosuppressed by using triamcinolone acetonide (1 mg/mouse) subcutaneously ([40]). On day 0, mice were infected intranasally with 20 μl of a suspension containing 2 × 10^4 conidia of A. fumigatus strain Af293 and were treated through gavage with 20 mg/kg/day of BHBM, D13, or voriconazole (as a drug control) in a final volume of 100 μl of 30% PEG in saline buffer. The untreated control group mice received 100 μl of 30% PEG in saline buffer. Mice were fed ad libitum and were given 50% grapefruit juice in place of normal drinking water to avoid the liver metabolism of the drugs ([41]). Mice were monitored every day for discomfort and sacrificed subsequently.

For data set [11], the system named is Caco-2 cell line. Description: Caco-2 permeability. The settings on record: human, Caco-2, 2 h, 5 μM, pH 7.4.
Protocol: (§3) The Caco-2 permeability studies were performed as follows. (i) For the preparation of Caco cells, 50-μl and 25-ml volumes of cell culture medium were added to each well of the Transwell insert and reservoir, respectively. The HTS Transwell plates then were incubated at 37°C, 5% CO2 for 1 h before cell seeding. […] (ii) For the preparation of stock solutions, 10 mM stock solutions of test compounds were prepared in DMSO. The stock solutions of positive controls were prepared in DMSO at a concentration of 10 mM. Digoxin and propranolol were used as control compounds in this assay. (iii) For the assessment of cell monolayer integrity, medium was removed from the reservoir and each Transwell insert and replaced with prewarmed fresh culture medium. Transepithelial electrical resistance (TEER) across the monolayer was measured using a Millicell epithelial volt-Ohm measuring system (Millipore, USA). The plate was returned to the incubator once the measurement was done. The TEER value was calculated according to the following equation: TEER measurement (ohms) × area of membrane (cm^2) = TEER value (ohm · cm^2). The TEER value should be greater than 230 Ω · cm^2, which indicates a well-qualified Caco-2 monolayer. (iv) The assay was performed as follows. The Caco-2 plate was removed from the incubator and washed twice with prewarmed Hanks' balanced salt solution (HBSS; with 10 mM HEPES, pH 7.4) and then incubated at 37°C for 30 min. The stock solutions of control compounds were diluted in DMSO to get 1 mM solutions and then diluted with HBSS (10 mM HEPES, pH 7.4) to get 5 μM working solutions. The stock solutions of the test compounds were diluted in DMSO to get 1 mM solutions and then diluted with HBSS (10 mM HEPES, pH 7.4) to get 5 μM working solutions. The final concentration of DMSO in the incubation system was 0.5%. To determine the rate of drug transport in the apical to basolateral direction, 75 μl of 5 μM working solution of test compound was added to the Transwell insert (apical compartment), and the wells in the receiver plate (basolateral compartment) were filled with 235 μl of HBSS (10 mM HEPES, pH 7.4). To determine the rate of drug transport in the basolateral to apical direction, 235 μl of 5 μM working solution of test compound was added to the receiver plate wells (basolateral compartment), and then the Transwell inserts (apical compartment) were filled with 75 μl of HBSS (10 mM HEPES, pH 7.4). Time zero samples were prepared by transferring 50 μl of 5 μM working solution to wells of the 96-deep-well plate, followed by the addition of 200 μl cold acetonitrile or methanol containing appropriate IS. The plates were incubated at 37°C for 2 h. At the end of the incubation, 50-μl samples from donor sides (apical compartment for AP→BL flux and basolateral compartment for BL→AP) and receiver sides (basolateral compartment for AP→BL flux and apical compartment for BL→AP) were transferred to wells of a new 96-well plate, followed by the addition of 4 volumes of cold acetonitrile or methanol containing appropriate IS. […] An aliquot of 100 μl of the supernatant was mixed with an appropriate volume of ultrapure water before LC-MS/MS analysis. To determine the Lucifer yellow leakage after a 2-h transport period, a stock solution of Lucifer yellow was prepared in ultrapure water and diluted with HBSS (10 mM HEPES, pH 7.4) to reach a final concentration of 100 μM. One hundred microliters of the Lucifer yellow solution was added to each Transwell insert (apical compartment), followed by filling the wells in the receiver plate (basolateral compartment) with 300 μl of HBSS (10 mM HEPES, pH 7.4). The plates were incubated at 37°C for 30 min, and 80-μl samples were removed directly from the apical and basolateral wells (using the basolateral access holes) and transferred to wells of new 96-well plates.
Data set [12] in a line: Caco-2 permeability. The settings on record: human; for Papp A→B at 2 h, 5 μM / Papp B→A at 2 h, 5 μM: Caco-2, pH 7.4. (Passage across Caco-2 layers is used to estimate intestinal permeability.)
Protocol: as §3
Data set [13] relates to P. murina. As to the kind of experiment: Murine model of pneumocystosis. The following applies: i.p. 7.2 mg/kg/day. The format is in vivo, mice. How it is done: C3H/HeN mice ordered from the National Cancer Institute were infected with P. murina pneumonia through exposure to mice with a fulminant P. murina infection (seed mice). These mice are immune suppressed by the addition of dexamethasone at 4 mg/liter to the drinking water. Sulfuric acid at 1 ml/liter was also added to the drinking water for disinfection. The seed mice were rotated within the cages for 2 weeks and then removed. After the mice had developed a moderate infection level (approximately 5 weeks), the mice were divided into a negative-control group (control steroid), positive-control group (trimethoprim-sulfamethoxazole), and D13 group. Compound was solubilized in DMSO for a stock solution of 50 mg/ml. Compound was refrigerated before and after solubilization. Stock solution was diluted in PBS to a final concentration of 1.8 mg/ml. Mice were intraperitoneally (i.p.) injected with 100 μl of diluted stock for a total dose of approximately 180 μg/day or 7.2 mg/kg/day based on average mouse weights of 25 g. […] Slides were made from the lung homogenates at different dilutions and stained with Diff-Quik to quantify the trophic forms and cresyl echt violet to quantify the asci. Efficacy is based on the reduction of organism burden between the treatment groups and the negative-control group as determined by microscopic evaluation.

For data set [14], the system named is Candida krusei ATCC 6258. Description: Synergistic assay (FIC), CK Flu R2. It is filed as cell-based. The following applies: Pichia kudriavzevii, ATCC6258. How it is done:
as §1

In brackets after ≈: the same amount, converted by molar mass. Like-named read-outs stand apart in the source and are kept apart here.

By IC50 is commonly meant the concentration at which inhibition is half-maximal. High values mean weaker potency in that assay, low ones greater potency in that assay. A word on the MIC: it is the lowest concentration that inhibits growth of the organism. By Papp A→B is commonly meant the apparent permeability from the apical to the basolateral side of a cell layer. By Papp B→A is commonly meant the apparent permeability from the basolateral to the apical side of a cell layer. A word on the efflux ratio: it is a quotient of directional permeabilities that is used to spot active efflux. Regarding `O=C(N/N=C/c1cc(Br)cc(Br)c1O)c1ccc(Br)cc1` [D13], the half-inhibitory concentration (IC50) in data set [1] is more than 128 µg/mL; in [7], more than 30 µM. Besides, the MIC was more than 1 µg/mL in [2]; more than 1 µg/mL in data set [3] (Candida albicans, 3022, CA Flu-R); 0.5 µg/mL in [5]; more than 1 µg/mL in data set [6]; more than 1 µg/mL in [8]; more than 1 µg/mL in data set [14]. In addition, the FIC score in data set [3] (D13 combined with itraconazole, C. albicans clinical isolates resistant to fluconazole) was 0.37. In addition, the figures for the “% remaining at 60 min” value in data set [4] and in data set [9] were 64.95% and 62.25%, respectively. Also, the “lung fungal burden (CFU) of surviving mice” value in data set [10] was “only one D13-treated mouse showed evidence of colonies”. In [10], this molecule returned a mice that survived of 80%. Also, the Efflux ratio in data set [11] was 1.74. This molecule also gave a Papp A→B at 2 h, 5 μM in data set [12] of 0.13 ×10⁻⁶ cm/s. Further, in data set [12], the Papp B→A at 2 h, 5 μM is less than 1 ×10⁻⁶ cm/s. Further, the efflux ratio at 2 h, 5 μM in data set [12] (Caco-2, pH 7.4, Efflux ratio) is less than 2. Besides, the recovery at 2 h, 5 μM in data set [12] (Caco-2, pH 7.4, Recovery AP→BL) was determined as 49.8%; in data set [12] (Caco-2, pH 7.4, Recovery BL→AP), 107%. Besides, the “number of asci or nuclei in lung homogenates” value in data set [13] (untreated versus treated mice) is on record as “No differences”. For the same molecule, the survival entry in data set [13] (versus negative control) was “did not show better survival”.
In turn, `Cc1ccccc1C(=O)N/N=C/c1cc(Br)ccc1O` [BHBM, (E)-N′-(3-bromo-6-hydroxybenzylidene)-2-methylbenzohydrazide] had a half-inhibitory concentration (IC50) in data set [1] of 32 µg/mL (≈ 96 µM). In addition, it took 11.5 µM to reach half-maximal inhibition in data set [7] (IC50). In [10], the “lung fungal burden (CFU) of surviving mice” value was “showed evidence of colonies” and the mice that survived was determined as 30%. For the same molecule, in data set [11], the “Recovery AP→BL” value is given as 41.88% and the “Recovery BL→AP” value worked out at 39.05%. Also, in data set [12], the Papp A→B at 2 h, 5 μM came to 14.3 ×10⁻⁶ cm/s and the Papp B→A at 2 h, 5 μM came out at 4.71 ×10⁻⁶ cm/s. Besides, the recovery at 2 h, 5 μM in data set [12] (Caco-2, pH 7.4, Recovery AP→BL) is approximately 40%. In addition, the recovery at 2 h, 5 μM in data set [12] (Caco-2, pH 7.4, Recovery BL→AP) is approximately 40%.

Source of the values: publication PMC5923120, “Acylhydrazones as Antifungal Agents Targeting the Synthesis of Fungal Sphingolipids” (Antimicrobial Agents and Chemotherapy, 2018).
